Results from US8957070B2, “Glucokinase activator compounds, methods of activating glucokinase and methods of treating diabetes and obesity” (Takeda Pharmaceutical Company Limited, priority 2005, dated 2015).

Assays:
[1] = molecular target: T1, GST-hLGK1 (human liver type GK) (Homo sapiens, UniProt P35557); assay: Determination of GK activity value (Mant-ATP conversion, capillary electrophoresis); assay type: biochemical; conditions: concentration necessary for activating 50% of the maximum GK activity value, 37° C., 60 min, D-glucose added
T1 construct: with a BamHI site added to immediately before the initiation codon; made in house; host or cells: Escherichia coli BL21
T1 sequence (P35557 1-464 isoform P35557-3): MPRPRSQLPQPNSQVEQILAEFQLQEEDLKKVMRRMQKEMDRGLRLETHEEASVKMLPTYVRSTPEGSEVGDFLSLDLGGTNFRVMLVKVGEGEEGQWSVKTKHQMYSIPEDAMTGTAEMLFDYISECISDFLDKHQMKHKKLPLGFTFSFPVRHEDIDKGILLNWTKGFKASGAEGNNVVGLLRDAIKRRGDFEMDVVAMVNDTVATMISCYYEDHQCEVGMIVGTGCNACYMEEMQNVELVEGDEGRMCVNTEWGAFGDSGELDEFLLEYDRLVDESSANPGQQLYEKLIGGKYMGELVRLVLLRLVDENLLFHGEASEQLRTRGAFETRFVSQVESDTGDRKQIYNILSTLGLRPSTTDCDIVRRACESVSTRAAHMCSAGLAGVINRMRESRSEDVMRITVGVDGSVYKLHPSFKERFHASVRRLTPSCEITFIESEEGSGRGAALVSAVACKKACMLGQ
Description: A solution (5 μL) of test compound in 50% dimethyl sulfoxide was added to each well of 384 well black plate (Nalge Nunc International K.K.). Then, a solution (35 μL) obtained by diluting GST-hLGK1 obtained in Reference Example 2A with measurement buffer (containing 50 mM HEPES (pH 7.4), 200 mM KCl, 5 mM MgCl2, 2.5 mM DTT and 50 μM 2′-(or -3′)-O—(N-methylanthraniloyl)adenosine 5′-triphosphate (Mant-ATP) (Jena Bioscience GmbH)) to 6 μg/mL was added to each well.
Each well was stood at 37° C. for 10 min, and 25 mM D-glucose solution (10 μL) was added to start the reaction.
Each well after the reaction was stood at 37° C. for 60 min, and the reaction was quenched by adding 25 μL of a quenching solution (containing 200 mM HEPES (pH 7.4), 20 mM MgCl2, 200 mM EDTA, 0.03% Triton-X 100, 0.3% Coating 3 reagent (Caliper Life Sciences, Inc.)).
Mant-ATP (substrate) and Mant-ADP (reaction resultant product) were separated from each well after the reaction by a microchip type capillary electrophoresis apparatus 250 HTS (Caliper Life Sciences, Inc.). The reaction rate [(reaction resultant product peak height)/(reaction resultant product peak height+substrate peak height)×100(%)] was calculated from the ratio of the substrate peak height and reaction resultant product peak height obtained by fluorescence detection (excitation wavelength 355 nm, measurement wavelength 460 nm) and used as the index of GK activity.
As a control group, the reaction rate was calculated in the same manner as above except that “solution in 50% dimethyl sulfoxide” was used instead of “solution of test compound in 50% dimethyl sulfoxide”.
The percentage obtained by dividing the reaction rate of the well added with the test compound (test compound addition group) by the reaction rate of the well added with 50% solution in dimethyl sulfoxide alone (control group) was taken as the GK activity value of the test compound, and the concentration of the test compound necessary for activating 50% of the maximum value of the activity value is shown as EC50 value.

SMILES	melting point [°C]	EC50 [1] [nM]
CN(c1ccc(F)c2cc(-c3nccs3)[nH]c12)S(=O)(=O)c1cccs1 [Example 182, N-[4-fluoro-2-(1,3-thiazol-2-yl)-1H-indol-7-yl]-N-methylthiophene-2-sulfonamide]	197 to 198	29
Cc1ccc(N(C)S(=O)(=O)c2cccs2)c2[nH]c(-c3nccs3)cc12 [Example 177, N-Methyl-N-[4-methyl-2-(1,3-thiazol-2-yl)-1H-indol-7-yl]thiophene-2-sulfonamide]	159 to 160	
Cc1ccc(N(C)S(=O)(=O)c2cccs2)c2[nH]c(C(=O)O)cc12 [Example 175, 4-Methyl-7-[methyl (2-thienylsulfonyl)amino]-1H-indole-2-carboxylic acid]	223 to 225	
CNc1nc(-c2cc3cccc(N(C)S(=O)(=O)c4cccs4)c3[nH]2)cs1 [Example 174, N-Methyl-N-{2-[2-(methylamino)-1,3-thiazol-4-yl]-1H-indol-7-yl}thiophene-2-sulfonamide]	162 to 163	
